According to patent publication US11820755B2, “Uracil compound and use thereof” (Sumitomo Chemical Company, Limited, priority 2018, dated 2023):

How the values were obtained:
[1] = system: wheat leaf stripe fungi (Septoria tritici); assay: Titer plate growth test of wheat leaf stripe fungi in potato broth medium (absorbance at 600 nm); assay type: cell-based; conditions: cultured at 18° C. for 4 days
Protocol: Each 1 μL of a solution containing the compound A at a predetermined concentration in dimethylsulfoxide was dispensed into a titer plate (96 wells), and then each 150 μL of potato broth medium containing suspension of spore of wheat leaf stripe fungi (Septoria tritici) was dispensed so that the concentration of the compound A was finally 4.7 ppm. The plate was cultured at 18° C. for 4 days, thereby allowing the wheat leaf stripe fungi to undergo proliferation, and the absorbance at 600 nm of each well of the titer plate was then measured to determine a degree of growth of the wheat leaf stripe fungi. The efficacy was calculated from the determined degree of growth by the below-mentioned “Equation 1”. Efficacy (%)=100×(X−Y)/X “Equation 1” wherein • X: Degree of fungal growth in non-treated area • Y: Degree of fungal growth in treated area The “Non-treated area” represents an area where a similar treatment procedure to that of the treated area except for not using the compound A is done. Each 1 μL of a solution containing the compound A at a predetermined concentration in dimethylsulfoxide was dispensed into a titer plate (96 wells), and then each 150 μL of potato broth medium containing suspension of spore of wheat leaf stripe fungi was dispensed so that the concentration of the compound A was finally 1.2 ppm. The plate was cultured at 18° C. for 4 days, thereby allowing the wheat leaf stripe fungi to undergo proliferation, and the absorbance at 600 nm of each well of the titer plate was then measured to determine a degree of growth of the wheat leaf stripe fungi. The efficacy was calculated from the determined degree of growth by the below-mentioned “Equation 1”. As a result, the efficacy was 53%. The test was carried out according to Test Example 1 using the compound B instead of the compound A. As a result, the efficacy was 45%. The test was carried out according to Test Example 2 using the compound B instead of the compound A. As a result, the efficacy was 12%.

[2] = system: barley scald fungi (Rhynchosporium secalis); assay: Titer plate growth test of barley scald fungi in potato broth medium (absorbance at 600 nm); assay type: cell-based; conditions: 4.7 ppm, cultured at 18° C. for 7 days
Protocol: Each 1 μL of a solution containing the compound A at a predetermined concentration in dimethylsulfoxide was dispensed into a titer plate (96 wells), and then each 150 μL of potato broth medium containing suspension of spore of wheat leaf stripe fungi (Septoria tritici) was dispensed so that the concentration of the compound A was finally 4.7 ppm. The plate was cultured at 18° C. for 4 days, thereby allowing the wheat leaf stripe fungi to undergo proliferation, and the absorbance at 600 nm of each well of the titer plate was then measured to determine a degree of growth of the wheat leaf stripe fungi. The efficacy was calculated from the determined degree of growth by the below-mentioned “Equation 1”. Efficacy (%)=100×(X−Y)/X “Equation 1” wherein • X: Degree of fungal growth in non-treated area • Y: Degree of fungal growth in treated area The “Non-treated area” represents an area where a similar treatment procedure to that of the treated area except for not using the compound A is done. […] The plate was cultured at 18° C. for 7 days, thereby allowing the barley scald fungi to undergo proliferation, and the absorbance at 600 nm of each well of the titer plate was then measured to determine a degree of growth of the barley scald fungi. The efficacy was calculated from the determined degree of growth by the below-mentioned “Equation 1”. […]

[3] = 1.2 ppm, wheat leaf stripe fungi

Row | Compound | Efficacy (%) [1, 3] | Efficacy (%) ([1]; 4.7 ppm, Septoria tritici) | Efficacy (%) [2]
1 | CCOc1ncccc1Oc1cc(-n2c(=O)cc(C(F)(F)F)n(C)c2=O)c(F)cc1Cl [Compound A] | 53% | 73% | 94%
2 | COc1ncccc1Oc1cc(-n2c(=O)cc(C(F)(F)F)n(C)c2=O)c(F)cc1Cl [Compound B] | 12% | 45% | 41%
